What all share (type): in vitro ADME
Data set [1] concerns the target T1, UGT 2B4 (Homo sapiens, UniProt P06133).
T1 construct: purchased Corning, NY, USA (through DIAG-MED, Poland); host or cells: baculovirus-insect cells (Supersomes)
T1 sequence (P06133 24-528): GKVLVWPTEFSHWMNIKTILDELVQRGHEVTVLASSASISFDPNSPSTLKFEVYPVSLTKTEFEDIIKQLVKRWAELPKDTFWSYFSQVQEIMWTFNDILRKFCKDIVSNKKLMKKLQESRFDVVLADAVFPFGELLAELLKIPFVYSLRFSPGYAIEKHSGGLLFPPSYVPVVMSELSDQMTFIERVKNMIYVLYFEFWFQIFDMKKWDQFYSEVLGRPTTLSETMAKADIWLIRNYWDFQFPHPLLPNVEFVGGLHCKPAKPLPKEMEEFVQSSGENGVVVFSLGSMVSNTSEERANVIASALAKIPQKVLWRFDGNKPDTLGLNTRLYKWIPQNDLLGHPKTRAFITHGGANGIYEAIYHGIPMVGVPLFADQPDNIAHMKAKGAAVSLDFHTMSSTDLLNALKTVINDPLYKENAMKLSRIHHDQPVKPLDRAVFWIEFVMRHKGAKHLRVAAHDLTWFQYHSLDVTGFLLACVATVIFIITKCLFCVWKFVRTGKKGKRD
Description: Glucuronidation with recombinant UGT2B4. The note with it: 0.05 mM compound, 1 mg/mL UGT, 5 mM UDPGA. On the set-up: key: −: the lack of UGT activity; +: the significant UGT activity. Here is the method:
(§1) Recombinant UGT isoform protein (1 mg/mL) was assayed for activity toward tested UAs as follows. The proteins were incubated in a buffer containing 0.1 M HEPES (pH 7.4), 8 mM MgCl2 and alamethicin (25 μg/mL) with either 0.05 mM substrate in total volume 70 µL (alamethicin was added to permeabilize the membrane). Substrates were also in buffer HEPES, pH 7.4. Reactions were started by the addition of UDPGA (5 mM) and were incubated for specified time at 37 °C. The reactions were stopped by the addition of 8.75 µL of 1 M HCl, followed by centrifugation at 13400 rpm for 10 min to pellet the denatured protein. The supernatant fractions were used for HPLC analysis. Control reactions omitting substrate were run with each assay. All incubations were performed in two repetitions.

Data set [2] addresses T2, UGT2B15 (Homo sapiens, UniProt P54855).
T2 construct: purchased Corning, NY, USA (through DIAG-MED, Poland); host or cells: baculovirus-insect cells (Supersomes)
T2 sequence (P54855 24-530): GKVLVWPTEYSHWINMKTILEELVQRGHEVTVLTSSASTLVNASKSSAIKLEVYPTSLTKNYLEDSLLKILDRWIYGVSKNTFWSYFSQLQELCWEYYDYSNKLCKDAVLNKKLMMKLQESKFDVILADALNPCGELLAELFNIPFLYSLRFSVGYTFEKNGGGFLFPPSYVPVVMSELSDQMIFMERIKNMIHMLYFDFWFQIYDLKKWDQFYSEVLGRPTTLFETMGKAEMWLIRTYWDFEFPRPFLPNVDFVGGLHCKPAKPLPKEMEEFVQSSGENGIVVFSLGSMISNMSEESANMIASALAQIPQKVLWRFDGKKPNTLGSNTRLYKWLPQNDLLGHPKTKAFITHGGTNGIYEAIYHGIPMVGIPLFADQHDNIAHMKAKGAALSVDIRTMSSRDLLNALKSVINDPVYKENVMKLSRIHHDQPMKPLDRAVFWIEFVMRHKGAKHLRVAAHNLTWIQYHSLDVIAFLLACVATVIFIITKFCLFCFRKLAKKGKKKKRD
In words: Glucuronidation with recombinant UGT2B15. The note with it: 0.05 mM compound, 1 mg/mL UGT, 5 mM UDPGA. On the set-up: key: −: the lack of UGT activity; +: the significant UGT activity. Here is the method:
as §1

The target of data set [3] is T3, UGT 1A6 (Homo sapiens, UniProt P19224).
T3 construct: His tag; purchased Corning, NY, USA (through DIAG-MED, Poland); host or cells: baculovirus-insect cells (Supersomes); Results say Sf9 cells
T3 sequence (P19224 27-532): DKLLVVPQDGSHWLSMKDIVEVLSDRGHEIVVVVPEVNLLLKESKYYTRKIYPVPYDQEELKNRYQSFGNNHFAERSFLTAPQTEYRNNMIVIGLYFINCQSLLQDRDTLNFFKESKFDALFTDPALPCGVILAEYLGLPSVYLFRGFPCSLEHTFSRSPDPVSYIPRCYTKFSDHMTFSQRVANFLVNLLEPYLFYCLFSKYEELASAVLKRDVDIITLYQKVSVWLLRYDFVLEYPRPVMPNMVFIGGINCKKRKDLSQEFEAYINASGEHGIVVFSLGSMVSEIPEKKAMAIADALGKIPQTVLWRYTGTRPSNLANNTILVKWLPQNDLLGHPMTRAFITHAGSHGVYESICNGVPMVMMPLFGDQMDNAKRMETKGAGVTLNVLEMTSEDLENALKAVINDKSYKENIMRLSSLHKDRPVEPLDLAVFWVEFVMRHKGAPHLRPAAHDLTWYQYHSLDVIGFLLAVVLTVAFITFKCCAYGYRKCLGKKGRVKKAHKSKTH
In words: Glucuronidation with recombinant UGT1A6. The arrangement: key: −: the lack of UGT activity; +: the significant UGT activity. The note with it: 0.05 mM compound, 1 mg/mL UGT, 5 mM UDPGA. Here is the method:
as §1

The target of data set [4] is T4, P4503A4 (Homo sapiens, UniProt P08684).
T4 construct: purchased Cypex, Dundee, Scotland, UK (through Tebu-Bio); host or cells: Escherichia coli (Bactosomes)
T4 sequence (P08684 whole entry): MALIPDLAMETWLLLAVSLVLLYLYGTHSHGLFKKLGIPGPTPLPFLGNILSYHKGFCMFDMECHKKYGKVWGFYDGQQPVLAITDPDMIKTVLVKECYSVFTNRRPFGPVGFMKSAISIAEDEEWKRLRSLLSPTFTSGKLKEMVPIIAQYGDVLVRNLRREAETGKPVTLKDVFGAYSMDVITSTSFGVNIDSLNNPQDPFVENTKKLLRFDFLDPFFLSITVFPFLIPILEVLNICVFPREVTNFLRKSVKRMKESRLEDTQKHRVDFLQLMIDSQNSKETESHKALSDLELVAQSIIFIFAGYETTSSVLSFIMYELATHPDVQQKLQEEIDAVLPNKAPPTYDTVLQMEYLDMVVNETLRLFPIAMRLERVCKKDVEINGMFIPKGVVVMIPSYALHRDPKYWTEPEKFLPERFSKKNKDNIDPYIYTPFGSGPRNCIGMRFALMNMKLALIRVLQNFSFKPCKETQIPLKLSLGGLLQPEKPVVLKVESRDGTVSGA
Description: Modulation of P4503A4 activity (testosterone β-hydroxylation). The conditions noted are these: for mechanism of P4503A4 inhibition: testosterone 0.02-0.2 mM, inhibitor 0-0.01 mM, nonlinear regression; for decrease in activity of P4503A4: testosterone β-hydroxylation, all concentrations (0.01, 0.02 and 0.05 mM), 30 min. How it is done:
Isoenzyme activity was studied by the rate measurement of β-hydroxylation of testosterone (specific substrate for P4503A4) and of glucuronidation of specific substrates, namely, SN-38 (UGT1A1), EPI (UGT2B7),) and TFK (UGT2B15). All substrate and drug solutions were prepared as 10 mM stock solutions in DMSO and were diluted in […] (pH 7.4). The mixture containing isoenzymes P4503A4/UGT (0.5 mg/mL), probe substrate (0.1 mM), cofactor 2 mM NADPH/5 mM UDPGA and the increasing concentrations of tested UA (0, 0.01, 0.02 and 0.05 mM) was incubated in the reaction buffer containing (i) for P4503A4 0.1 M HEPES, 88 mM MgCl2 and (ii) for UGT 0.1 M HEPES, 88 mM MgCl2, 25 μg/mL alamethicin at 37 °C for 30 min and were terminated by adding 8.75 µL of 0.1 M HCl. The samples were placed in ice for 10 min and centrifuged (10 min, 13,400 rpm). Supernatant fractions were analyzed by HPLC. For more accurate investigation of P4503A4 inhibition by C-2045 and C-2053 the β-hydroxylation rate was measured at various concentrations of testosterone: 0.02, 0.05, 0.1 and 0.2 mM. The inhibitor (UA) concentrations were 0, 0.001, 0.005 and 0.01 mM, whereas the incubation time 30 min and concentration of P4503A4 (0.5 mg/mL).

The record followed here is paper PMC8066102, “Metabolic Profiles of New Unsymmetrical Bisacridine Antitumor Agents in Electrochemical and Enzymatic Noncellular Systems and in Tumor Cells” (Pharmaceuticals, 2021).

On to `CN(CCCNc1c2ccccc2nc2cccc([N+](=O)[O-])c12)CCCNc1ccc2ncn3c4ccccc4c(=O)c1c23` [C-2028], for which the “Glucuronidation potency UGT 2B4” value in data set [1] is recorded as “−”. In data set [2], the “Glucuronidation potency UGT 2B15” value was “−”. Moreover, the “Glucuronidation potency UGT 1A6” value in data set [3] is recorded as “−”.
Take `Cc1ccc([N+](=O)[O-])c2c(NCCCN(C)CCCNc3ccc4ncn5c6ccc(O)cc6c(=O)c3c45)c3ccccc3nc12` [C-2045]: in data set [1], the “Glucuronidation potency UGT 2B4” value is listed as “−”. For the same molecule, in data set [4], the “mechanism of P4503A4 inhibition” value is on record as “non-competitive” and the “decrease in activity of P4503A4” value is “over 90%”. Further, in data set [2], the “Glucuronidation potency UGT 2B15” value was “−”.
`Cc1ccc([N+](=O)[O-])c2c(NCCCN(C)CCCNc3ccc4ncn5c6ccccc6c(=O)c3c45)c3ccccc3nc12` [C-2053]: the “Glucuronidation potency UGT 2B4” value in data set [1] is on record as “−”. In data set [4], the “mechanism of P4503A4 inhibition” value is listed as “competitive” and the “decrease in activity of P4503A4” value is given as “above 50%”. Besides, the “Glucuronidation potency UGT 2B15” value in data set [2] is reported as “−”. Also, the “Glucuronidation potency UGT 1A6” value in data set [3] is reported as “−”.
